Measurements published in patent US20220265694A1, “COMPOSITIONS AND METHODS FOR TREATING AN INFECTION” (CMPD LICENSING, LLC, priority 2016, published 2022).

Key:
Clostridium perfringens = settings: expected efficacy against Clostridium perfringens; Gram: anaer
Acinetobacter baumannii = experiment: Expected efficacy of antibiotic agents; settings: expected efficacy against Acinetobacter baumannii; Gram: neg
[1] = system: Acinetobacter calcoaceticus; experiment: Expected efficacy of antibiotic agents; settings: expected efficacy against Acinetobacter calcoaceticus; Gram: neg
Acinetobacter lwoffii = experiment: Expected efficacy of antibiotic agents; settings: expected efficacy against Acinetobacter lwoffii; Gram: neg
Bartonella bacilliformis = experiment: Expected efficacy of antibiotic agents; settings: expected efficacy against Bartonella bacilliformis; Gram: neg
Bordetella pertussis = experiment: Expected efficacy of antibiotic agents; settings: expected efficacy against Bordetella pertussis; Gram: neg
Brucella species = settings: expected efficacy against Brucella species; Gram: neg
Campylobacter jejuni = experiment: Expected efficacy of antibiotic agents; settings: expected efficacy against Campylobacter jejuni; Gram: neg
Citrobacter diversus = experiment: Expected efficacy of antibiotic agents; settings: expected efficacy against Citrobacter diversus; Gram: neg
Citrobacter freundii = experiment: Expected efficacy of antibiotic agents; settings: expected efficacy against Citrobacter freundii; Gram: neg
Enterobacter aerogenes = experiment: Expected efficacy of antibiotic agents; settings: expected efficacy against Enterobacter aerogenes; Gram: neg
Enterobacter cloacae = experiment: Expected efficacy of antibiotic agents; settings: expected efficacy against Enterobacter cloacae; Gram: neg
Enterobacter sakazakii = experiment: Expected efficacy of antibiotic agents; settings: expected efficacy against Enterobacter sakazakii; Gram: neg
Escherichia coli = experiment: Expected efficacy of antibiotic agents; settings: expected efficacy against Escherichia coli; Gram: neg
Francisella tularensis = settings: expected efficacy against Francisella tularensis; Gram: neg
Haemophilus ducreyi = experiment: Expected efficacy of antibiotic agents; settings: expected efficacy against Haemophilus ducreyi; Gram: neg
Haemophilus influenzae = experiment: Expected efficacy of antibiotic agents; settings: expected efficacy against Haemophilus influenzae; Gram: neg
[2] = system: Klebsiella (Calymmatobacterium); experiment: Expected efficacy of antibiotic agents; settings: expected efficacy against Klebsiella (Calymmatobacterium); Gram: neg
Klebsiella oxytoca = experiment: Expected efficacy of antibiotic agents; settings: expected efficacy against Klebsiella oxytoca; Gram: neg
Klebsiella pneumoniae = experiment: Expected efficacy of antibiotic agents; settings: expected efficacy against Klebsiella pneumoniae; Gram: neg
Legionella pneumophila = settings: expected efficacy against Legionella pneumophila; Gram: neg
Moraxella catarrhalis = experiment: Expected efficacy of antibiotic agents; settings: expected efficacy against Moraxella catarrhalis; Gram: neg
Morganella morganii = experiment: Expected efficacy of antibiotic agents; settings: expected efficacy against Morganella morganii; Gram: neg
Neisseria gonorrhoeae = experiment: Expected efficacy of antibiotic agents; settings: expected efficacy against Neisseria gonorrhoeae; Gram: neg
Neisseria meningitidis = experiment: Expected efficacy of antibiotic agents; settings: expected efficacy against Neisseria meningitidis; Gram: neg
Proteus mirabilis = experiment: Expected efficacy of antibiotic agents; settings: expected efficacy against Proteus mirabilis; Gram: neg
Proteus vulgaris = experiment: Expected efficacy of antibiotic agents; settings: expected efficacy against Proteus vulgaris; Gram: neg
Providencia rettgeri = experiment: Expected efficacy of antibiotic agents; settings: expected efficacy against Providencia rettgeri; Gram: neg
Providencia stuartii = experiment: Expected efficacy of antibiotic agents; settings: expected efficacy against Providencia stuartii; Gram: neg
Pseudomonas aeruginosa = experiment: Expected efficacy of antibiotic agents; settings: expected efficacy against Pseudomonas aeruginosa; Gram: neg
Pseudomonas fluorescens = experiment: Expected efficacy of antibiotic agents; settings: expected efficacy against Pseudomonas fluorescens; Gram: neg
Rickettsiae = settings: expected efficacy against Rickettsiae; Gram: neg
Salmonella typhi = experiment: Expected efficacy of antibiotic agents; settings: expected efficacy against Salmonella typhi; Gram: neg
Serratia marcescens = experiment: Expected efficacy of antibiotic agents; settings: expected efficacy against Serratia marcescens; Gram: neg
Shigella boydii = experiment: Expected efficacy of antibiotic agents; settings: expected efficacy against Shigella boydii; Gram: neg
Shigella dysenteriae = experiment: Expected efficacy of antibiotic agents; settings: expected efficacy against Shigella dysenteriae; Gram: neg
Shigella flexneri = experiment: Expected efficacy of antibiotic agents; settings: expected efficacy against Shigella flexneri; Gram: neg
Shigella sonnei = experiment: Expected efficacy of antibiotic agents; settings: expected efficacy against Shigella sonnei; Gram: neg
Vibrio cholerae = experiment: Expected efficacy of antibiotic agents; settings: expected efficacy against Vibrio cholerae; Gram: neg
Yersinia pestis = settings: expected efficacy against Yersinia pestis; Gram: neg
Corynebacterium jeikeium = experiment: Expected efficacy of antibiotic agents; settings: expected efficacy against Corynebacterium jeikeium; Gram: pos
[3] = system: Corynebacterium urealyticum; experiment: Expected efficacy of antibiotic agents; settings: expected efficacy against Corynebacterium urealyticum; Gram: pos
[4] = system: Methicillin resistant staph aureus (MRSA); experiment: Expected efficacy of antibiotic agents; settings: expected efficacy against Methicillin resistant staph aureus (MRSA); Gram: pos
[5] = system: Staphylococcus aureus (MSSA); experiment: Expected efficacy of antibiotic agents; settings: expected efficacy against Staphylococcus aureus (MSSA); Gram: pos
Streptococcus pyogenes = experiment: Expected efficacy of antibiotic agents; settings: expected efficacy against Streptococcus pyogenes; Gram: pos
Candida species = experiment: Expected efficacy of antifungal agents; settings: expected efficacy against Candida species
Bacteroides fragilis = experiment: Expected efficacy of antibiotic agents; settings: expected efficacy against Bacteroides fragilis; Gram: anaer
Clostridium difficile = experiment: Expected efficacy of antibiotic agents; settings: expected efficacy against Clostridium difficile; Gram: anaer
Chlamydia pneumoniae = experiment: Expected efficacy of antibiotic agents; settings: expected efficacy against Chlamydia pneumoniae; Gram: n/a
Chlamydia psittaci = settings: expected efficacy against Chlamydia psittaci; Gram: n/a
Chlamydia trachomatis = experiment: Expected efficacy of antibiotic agents; settings: expected efficacy against Chlamydia trachomatis; Gram: n/a
Mycoplasma pneumoniae = experiment: Expected efficacy of antibiotic agents; settings: expected efficacy against Mycoplasma pneumoniae; Gram: n/a
Enterococcus faecalis = experiment: Expected efficacy of antibiotic agents; settings: expected efficacy against Enterococcus faecalis; Gram: pos
Enterococcus faecium = experiment: Expected efficacy of antibiotic agents; settings: expected efficacy against Enterococcus faecium; Gram: pos
[6] = system: Staphylococcus epidermidis; experiment: Expected efficacy of antibiotic agents; settings: expected efficacy against Staphylococcus epidermidis; Gram: pos
Streptococcus agalactiae = experiment: Expected efficacy of antibiotic agents; settings: expected efficacy against Streptococcus agalactiae; Gram: pos
Streptococcus pneumoniae = experiment: Expected efficacy of antibiotic agents; settings: expected efficacy against Streptococcus pneumoniae; Gram: pos

C/C(=C\C(=O)OCCCCCCCCC(=O)O)C[C@@H]1OC[C@H](C[C@@H]2O[C@H]2[C@@H](C)[C@H](C)O)[C@@H](O)[C@H]1O [Bactroban] was tested, and the Efficacy (Clostridium perfringens) was “no”, the Efficacy (Acinetobacter baumannii) was “no” and the Efficacy [1] was “no”. The Efficacy (Acinetobacter lwoffii) was “no”, the Efficacy (Bartonella bacilliformis) was “no” and the Efficacy (Bordetella pertussis) was “no”. The Efficacy (Brucella species) was “no”, the Efficacy (Campylobacter jejuni) was “no” and the Efficacy (Citrobacter diversus) was “no”. For the same compound, the Efficacy (Citrobacter freundii) was “no”, the Efficacy (Enterobacter aerogenes) was “no” and the Efficacy (Enterobacter cloacae) was “no”. For the same compound, the Efficacy (Enterobacter sakazakii) was “no”, the Efficacy (Escherichia coli) was “no” and the Efficacy (Francisella tularensis) was “no”. For the same compound, the Efficacy (Haemophilus ducreyi) was “no”, the Efficacy (Haemophilus influenzae) was “no” and the Efficacy [2] was “no”. The Efficacy (Klebsiella oxytoca) was “no”, the Efficacy (Klebsiella pneumoniae) was “no” and the Efficacy (Legionella pneumophila) was “no”. For the same compound, the Efficacy (Moraxella catarrhalis) was “no”, the Efficacy (Morganella morganii) was “no” and the Efficacy (Neisseria gonorrhoeae) was “no”. The Efficacy (Neisseria meningitidis) was “no”, the Efficacy (Proteus mirabilis) was “no” and the Efficacy (Proteus vulgaris) was “no”. For the same compound, the Efficacy (Providencia rettgeri) was “no”, the Efficacy (Providencia stuartii) was “no” and the Efficacy (Pseudomonas aeruginosa) was “no”. For the same compound, the Efficacy (Pseudomonas fluorescens) was “no”, the Efficacy (Rickettsiae) was “no” and the Efficacy (Salmonella typhi) was “no”. The Efficacy (Serratia marcescens) was “no”, the Efficacy (Shigella boydii) was “no” and the Efficacy (Shigella dysenteriae) was “no”. For the same compound, the Efficacy (Shigella flexneri) was “no”, the Efficacy (Shigella sonnei) was “no” and the Efficacy (Vibrio cholerae) was “no”. For the same compound, the Efficacy (Yersinia pestis) was “no”, the Efficacy (Corynebacterium jeikeium) was “no” and the Efficacy [3] was “no”. For the same compound, the Efficacy [4] was “yes”, the Efficacy [5] was “yes” and the Efficacy (Streptococcus pyogenes) was “yes”.
C[C@@H]1[C@H](O)[C@@H](C)/C=C/C=C/CC/C=C/C=C/C=C/C=C/C(O[C@H]2O[C@H](C)[C@@H](O)[C@H](N)[C@@H]2O)CC2O[C@](O)(CC(O)C(O)CCC(O)CC(O)CC(O)CC(=O)O[C@H]1C)CC(O)C2C(=O)O (stereo partly drawn) [Nystatin] was tested, and the Efficacy (Candida species) was “yes”.
In the case of CC[C@H]1OC(=O)[C@H](C)[C@@H](O[C@H]2C[C@@](C)(OC)[C@@H](O)[C@H](C)O2)[C@H](C)[C@@H](O[C@@H]2O[C@H](C)C[C@H](N(C)C)[C@H]2O)[C@](C)(O)C[C@@H](C)CN(C)[C@H](C)[C@@H](O)[C@]1(C)O [Azithromycin], the Efficacy (Bacteroides fragilis) was “no”, the Efficacy (Clostridium difficile) was “no” and the Efficacy (Clostridium perfringens) was “no”. The Efficacy (Chlamydia pneumoniae) was “yes”, the Efficacy (Chlamydia psittaci) was “yes” and the Efficacy (Chlamydia trachomatis) was “yes”. For the same compound, the Efficacy (Mycoplasma pneumoniae) was “yes”, the Efficacy (Acinetobacter baumannii) was “no” and the Efficacy [1] was “no”. For the same compound, the Efficacy (Acinetobacter lwoffii) was “no”, the Efficacy (Bartonella bacilliformis) was “yes” and the Efficacy (Bordetella pertussis) was “yes”. The Efficacy (Brucella species) was “no”, the Efficacy (Campylobacter jejuni) was “yes” and the Efficacy (Citrobacter diversus) was “no”. The Efficacy (Citrobacter freundii) was “no”, the Efficacy (Enterobacter aerogenes) was “no” and the Efficacy (Enterobacter cloacae) was “no”. For the same compound, the Efficacy (Enterobacter sakazakii) was “no”, the Efficacy (Escherichia coli) was “no” and the Efficacy (Francisella tularensis) was “no”. For the same compound, the Efficacy (Haemophilus influenzae) was “yes”, the Efficacy [2] was “no” and the Efficacy (Klebsiella oxytoca) was “no”. The Efficacy (Klebsiella pneumoniae) was “no”, the Efficacy (Legionella pneumophila) was “yes” and the Efficacy (Moraxella catarrhalis) was “yes”. The Efficacy (Morganella morganii) was “no”, the Efficacy (Neisseria meningitidis) was “yes” and the Efficacy (Proteus mirabilis) was “no”. The Efficacy (Proteus vulgaris) was “no”, the Efficacy (Providencia rettgeri) was “no” and the Efficacy (Providencia stuartii) was “no”. For the same compound, the Efficacy (Pseudomonas aeruginosa) was “no”, the Efficacy (Pseudomonas fluorescens) was “no” and the Efficacy (Rickettsiae) was “yes”. The Efficacy (Serratia marcescens) was “no”, the Efficacy (Vibrio cholerae) was “yes” and the Efficacy (Corynebacterium jeikeium) was “no”. For the same compound, the Efficacy (Enterococcus faecalis) was “no”, the Efficacy (Enterococcus faecium) was “no” and the Efficacy [4] was “no”. The Efficacy [5] was “yes”, the Efficacy [6] was “yes” and the Efficacy (Streptococcus agalactiae) was “yes”. The Efficacy (Streptococcus pneumoniae) was “yes” and the Efficacy (Streptococcus pyogenes) was “yes”.
